Assay [1] concerns the target T1, P2X7 (Homo sapiens (Human), UniProt Q99572). Description: P2X7 antagonism in human PBMCs (LPS + Bz-ATP induced IL-1β release, ELISA).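 On all read-outs here: PBMCs from donor human blood, with a further 1.5 h incubation of the cells in the assay.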 The assay is classed as cell-based. Particulars: LPS 30 ng/ml, Bz-ATP 0.5 mM; for PBMC 10 μM (% control): compound 10 μM; for PBMC 1 μM (% control): compound 1 μM.
The target of a further assay is rat P2X7 (Rattus norvegicus (Rat), UniProt Q64663). Description: Ca2+ flux (FLIPR) in 1321N1 cells expressing recombinant rat P2X7 channel.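 Further: Calcium-4 dye fluorescence change read 180 s after agonist addition, following 30 min cell preincubation with test compound.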 Format: cell-based. Particulars: 250 μM BzATP. Background: A change in cytosolic calcium serves as a functional read-out for many receptors and channels.
Assay [2] deals with T1, P2X7. Description: Ca2+ flux (FLIPR) in 1321N1 cells expressing recombinant human P2X7 channel.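 Further: Calcium-4 dye-loaded cells exposed to compound for 30 min before agonist addition, fluorescence change read 180 s after agonist.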 The note with it: 250 μM BzATP. The assay is classed as cell-based.
Experimental: Cells were seeded at a density of 25000 cells/well (96-well clear bottom black walled plates) in 100 μl volume/well. On the day of the experiment, cell plates were washed with assay buffer, containing (in mM): 130 NaCl, 2 KCl, 1 CaCl2, 1 MgCl2, 10 HEPES, 5 glucose; pH 7.40 and 300 mOs. After the wash, cells were loaded with the Calcium-4 dye (Molecular Device) and incubated in the dark for 60 minutes. Test compounds were prepared at 250× the test concentration in neat DMSO. Intermediate 96-well compound plates were prepared by transferring 1.2 μL of the compound into 300 μL of assay buffer. A further 3× dilution occurred when transferring 50 μL/well of the compound plate to 100 μL/well in the cell plate. Cells were incubated with test compounds and dye for 30 minutes. […] The fluorescence change was measured 180 seconds after adding the agonist.
The target in assay [3] is T1, P2X7. Description: Radioligand binding, tritiated A-804598, human P2X7-1321N1 cell membranes.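 Further: ki obtained from the binding IC50 after correction for tracer concentration and tracer affinity.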 Particulars: 1 hour at 4° C.
Experimental: On the day of the experiment, cell membrane preparations were made according to standard published methods. […] The assay was terminated by filtration (GF/B filters pre-soaked with 0.3% PEI) and washed with washing buffer (Tris-HCl 50 mM). The IC50 generated in the binding assay was corrected for tracer concentration and affinity of the tracer to derive at the affinity (Ki) of the test compounds.

T1 sequence (Q99572 whole entry): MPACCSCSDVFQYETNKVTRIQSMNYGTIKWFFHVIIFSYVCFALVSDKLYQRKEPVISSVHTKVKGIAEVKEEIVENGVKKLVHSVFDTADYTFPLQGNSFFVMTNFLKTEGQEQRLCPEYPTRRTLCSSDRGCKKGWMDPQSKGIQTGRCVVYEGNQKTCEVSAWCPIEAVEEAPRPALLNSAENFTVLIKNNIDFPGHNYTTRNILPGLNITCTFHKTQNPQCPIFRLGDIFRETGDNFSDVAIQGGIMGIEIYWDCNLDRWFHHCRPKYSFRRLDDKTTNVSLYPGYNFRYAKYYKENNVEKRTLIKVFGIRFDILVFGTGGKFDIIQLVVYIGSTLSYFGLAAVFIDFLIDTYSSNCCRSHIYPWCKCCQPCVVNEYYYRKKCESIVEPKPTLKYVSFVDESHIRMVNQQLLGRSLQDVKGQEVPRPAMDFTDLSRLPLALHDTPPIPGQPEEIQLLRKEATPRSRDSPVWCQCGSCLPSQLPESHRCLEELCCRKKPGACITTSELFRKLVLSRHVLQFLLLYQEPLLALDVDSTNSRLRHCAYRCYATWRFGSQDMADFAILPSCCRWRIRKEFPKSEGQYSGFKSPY
rat P2X7, sequence (Q64663 whole entry): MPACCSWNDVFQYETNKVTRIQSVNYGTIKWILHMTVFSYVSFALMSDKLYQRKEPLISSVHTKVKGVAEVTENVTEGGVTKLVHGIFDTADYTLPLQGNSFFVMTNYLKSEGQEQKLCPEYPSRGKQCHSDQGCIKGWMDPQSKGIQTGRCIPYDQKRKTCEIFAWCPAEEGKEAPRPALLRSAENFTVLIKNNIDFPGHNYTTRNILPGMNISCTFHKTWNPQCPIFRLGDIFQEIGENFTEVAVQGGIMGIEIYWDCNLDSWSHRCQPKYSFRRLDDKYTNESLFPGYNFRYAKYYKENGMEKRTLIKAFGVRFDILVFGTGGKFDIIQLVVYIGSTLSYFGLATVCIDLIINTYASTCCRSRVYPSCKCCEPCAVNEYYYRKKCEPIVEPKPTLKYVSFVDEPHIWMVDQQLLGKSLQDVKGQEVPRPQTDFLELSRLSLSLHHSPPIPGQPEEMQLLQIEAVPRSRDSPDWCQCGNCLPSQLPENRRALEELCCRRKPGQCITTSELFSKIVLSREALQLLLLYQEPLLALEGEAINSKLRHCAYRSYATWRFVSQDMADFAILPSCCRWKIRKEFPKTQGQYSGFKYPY

Consider `O=C(c1cccc(C(F)(F)F)c1Cl)N1CCc2c(-c3ccc(F)cn3)n[nH]c2C1` [Example 94, 6-{[2-Chloro-3-(trifluoromethyl)phenyl]carbonyl}-3-(5-fluoropyridin-2-yl)-4,5,6,7-tetrahydro-2H-pyrazolo[3,4-c]pyridine], for which the “PBMC 10 μM (% control)” value on P2X7 [1] amounted to 10.8 % control. The figures for the IC50 at rat P2X7 and at P2X7 [2] were 123 nM and 12.4 nM, respectively. Also, at P2X7 [3], the affinity, expressed as Ki, was 31.6 nM.
As to `O=C(c1cccc(C(F)(F)F)c1Cl)N1CCc2c(ncn2-c2ccccn2)C1` [Example 1, (2-Chloro-3-(trifluoromethyl)phenyl)(1-(pyridin-2-yl)-6,7-dihydro-1H-imidazo[4,5-c]pyridin-5(4H)-yl)methanone], on P2X7 [1], the “PBMC 1 μM (% control)” value was determined as 11.5 % control. Also, the 50% inhibitory concentration (IC50) at P2X7 [2] was found to be 6.1 nM. Further, the Ki at P2X7 [3] came out at 75.9 nM.
In the case of `CC1c2ncn(-c3ncccc3F)c2CCN1C(=O)c1cccc(C(F)(F)F)c1Cl` (stereo not shown) [Example 21, (2-Chloro-3-(trifluoromethyl)phenyl)(1-(3-fluoropyridin-2-yl)-4-methyl-6,7-dihydro-1H-imidazo[4,5-c]pyridin-5(4H)-yl)methanone], the “PBMC 10 μM (% control)” value at P2X7 [1] is listed as 1.6 % control. In addition, the IC50 at P2X7 [2] came to 78.5 nM. The compound further had a Ki on P2X7 [3] of 126 nM.
For the compound `O=C(c1cccc(C(F)(F)F)c1Cl)N1CCc2c(nnn2-c2cnccn2)C1c1ccccc1` (stereo not shown) [Example 77, 5-{[2-Chloro-3-(trifluoromethyl)phenyl]carbonyl}-4-phenyl-1-pyrazin-2-yl-4,5,6,7-tetrahydro-1H-[1,2,3]triazolo[4,5-c]pyridine], at P2X7 [1], the “PBMC 1 μM (% control)” value turned out to be 31.7 % control. Further, at rat P2X7, the IC50 is 6.3 nM. The affinity on P2X7 [3], expressed as Ki, was 398 nM.
Regarding `Cc1c(C(=O)N2CCc3c(ncn3-c3ccc(F)cn3)C2C)cccc1C(F)(F)F` (stereo not shown) [Example 263, (1-(5-fluoropyridin-2-yl)-4-methyl-6,7-dihydro-1H-imidazo[4,5-c]pyridin-5(4H)-yl)(2-methyl-3-(trifluoromethyl)phenyl)methanone], at P2X7 [1], the “PBMC 10 μM (% control)” value was −1.6 % control. In addition, the half-maximal inhibitory concentration (IC50) at P2X7 [2] worked out at 16.1 nM. For the same compound, the affinity on P2X7 [3], expressed as Ki, was 55 nM.
With `Cn1nc(-c2ccccc2)c2c1CN(C(=O)c1cccc(Cl)c1Cl)CC2` [Example 103, 6-[(2,3-Dichlorophenyl)carbonyl]-1-methyl-3-phenyl-4,5,6,7-tetrahydro-1H-pyrazolo[3,4-c]pyridine], on P2X7 [1], the “PBMC 1 μM (% control)” value is 56.0 % control. Moreover, on P2X7 [2], the IC50 worked out at 392 nM. For the same compound, affinity on P2X7 [3] was put at a Ki of 275 nM.
Turning to `C[C@H]1c2nnn(-c3ccccn3)c2CCN1C(=O)c1ccc(F)c(Cl)c1Cl` (single isomer, unassigned) [Example 142, (S*)-(2,3-Dichloro-4-fluorophenyl)(4-methyl-1-(pyridin-2-yl)-6,7-dihydro-1H-[1,2,3]triazolo[4,5-c]pyridin-5(4H)-yl)methanone], on P2X7 [1], the “PBMC 10 μM (% control)” value was found to be 33.8 % control. On P2X7 [2], the IC50 was determined as 2 nM. Also, on P2X7 [3], the affinity corresponds to a Ki of 10 nM.
The matching figures for `O=C(c1cccc(Cl)c1Cl)N1CCc2c(ncn2-c2ccn[nH]2)C1` [Example 60, 5-[(2,3-Dichlorophenyl)carbonyl]-1-(1H-pyrazol-5-yl)-4,5,6,7-tetrahydro-1H-imidazo[4,5-c]pyridine]: 8.4 % control, 55.7 nM and 100 nM.
Consider `Cn1nc(-c2cccnc2)c2c1CN(C(=O)c1cccc(C(F)(F)F)c1Cl)CC2` [Example 108, 6-{[2-Chloro-3-(trifluoromethyl)phenyl]carbonyl}-1-methyl-3-pyridin-3-yl-4,5,6,7-tetrahydro-1H-pyrazolo[3,4-c]pyridine], for which the “PBMC 1 μM (% control)” value at P2X7 [1] amounted to 1.1 % control. Further, the IC50 on rat P2X7 stood at 794 nM. The same compound returned a Ki on P2X7 [3] of 100 nM.
On to `CC1Cc2c(nnn2-c2cc(F)ccn2)CN1C(=O)c1cccc(C(F)(F)F)c1Cl` (stereo not shown) [Example 176, (2-Chloro-3-(trifluoromethyl)phenyl)(1-(4-fluoropyridin-2-yl)-6-methyl-6,7-dihydro-1H-[1,2,3]triazolo[4,5-c]pyridin-5(4H)-yl)methanone], for which the “PBMC 10 μM (% control)” value at P2X7 [1] was 7.3 % control. In addition, the IC50 at P2X7 [2] amounted to 8 nM. Affinity on P2X7 [3] was put at a Ki of 31.6 nM.
For `CC1c2ncn(-c3ccc(F)cn3)c2CCN1C(=O)c1ccc(F)c(Cl)c1Cl` (stereo not shown) [Example 261, (2,3-dichloro-4-fluorophenyl)(1-(5-fluoropyridin-2-yl)-4-methyl-6,7-dihydro-1H-imidazo[4,5-c]pyridin-5(4H)-yl)methanone], the “PBMC 10 μM (% control)” value at P2X7 [1] was −3.1 % control. The IC50 on P2X7 [2] was found to be 19.4 nM. This compound displayed a Ki on P2X7 [3] of 36.3 nM.
Consider `O=C(c1cccc(C(F)(F)F)c1Cl)N1CCc2c(nnn2-c2cccc(F)n2)C1` [Example 135, (2-Chloro-3-(trifluoromethyl)phenyl)(1-(6-fluoropyridin-2-yl)-6,7-dihydro-1H-[1,2,3]triazolo[4,5-c]pyridin-5(4H)-yl)methanone], for which, on P2X7 [1], the “PBMC 10 μM (% control)” value is 1.7 % control. Further, on P2X7 [2], the IC50 is 48.2 nM. The compound also displayed an inhibition constant (Ki) at P2X7 [3] of 100 nM.
Take `O=C(c1cccc(C(F)(F)F)c1Cl)N1CCc2c(nnn2-c2ccccc2OCCF)C1` [Example 126, (2-Chloro-3-(trifluoromethyl)phenyl)(1-(2-(2-fluoroethoxy)phenyl)-6,7-dihydro-1H-[1,2,3]triazolo[4,5-c]pyridin-5(4H)-yl)methanone]: the “PBMC 1 μM (% control)” value on P2X7 [1] was 71.7 % control. For the same compound, at P2X7 [2], the IC50 was 85.5 nM. This compound also had a Ki at P2X7 [3] of 93.3 nM.
Regarding `CC1c2nnn(-c3ncco3)c2CCN1C(=O)c1cccc(C(F)(F)F)c1Cl` (stereo not shown) [Example 250], at P2X7 [1], the “PBMC 10 μM (% control)” value is −1.3 % control. Also, the IC50 on P2X7 [2] was 8.6 nM. At P2X7 [3], this compound gave a Ki of 39.8 nM.
With `O=C(c1cccc(C(F)(F)F)c1Cl)N1CCc2c(nnn2-c2ncc(F)cn2)C1` [Example 64, 5-{[2-Chloro-3-(trifluoromethyl)phenyl]carbonyl}-1-(5-fluoropyrimidin-2-yl)-4,5,6,7-tetrahydro-1H-[1,2,3]triazolo[4,5-c]pyridine], the “PBMC 10 μM (% control)” value at P2X7 [1] was −9.2 % control. Also, the IC50 on P2X7 [2] turned out to be 14.3 nM. In addition, the affinity on P2X7 [3], expressed as Ki, was 31.6 nM.
Turning to `Cc1c(C(=O)N2CCc3c(ncn3-c3ccc(F)cn3)C2)cccc1C(F)(F)F` [Example 312, (1-(5-fluoropyridin-2-yl)-6,7-dihydro-1H-imidazo[4,5-c]pyridin-5(4H)-yl)(2-methyl-3-(trifluoromethyl)phenyl)methanone], the “PBMC 10 μM (% control)” value at P2X7 [1] is given as 9.5 % control. The IC50 on P2X7 [2] came to 157 nM. Also, at P2X7 [3], the Ki amounted to 39.8 nM.
`O=C(c1cccc(C(F)(F)F)c1Cl)N1CCc2c(ncn2-c2cnccn2)C1` [Example 6, (2-Chloro-3-(trifluoromethyl)phenyl)(1-(pyrazin-2-yl)-6,7-dihydro-1H-imidazo[4,5-c]pyridin-5(4H)-yl)methanone]: on P2X7 [1], the “PBMC 1 μM (% control)” value is reported as 14.3 % control. For the same compound, the IC50 on P2X7 [2] is 9.4 nM. The same compound registered a Ki at P2X7 [3] of 42.7 nM.
As to `Cc1nc2c(n1-c1ccccc1)CCN(C(=O)c1cccc(Cl)c1Cl)C2` [Example 331, (2,3-dichlorophenyl)(2-methyl-1-phenyl-6,7-dihydro-1H-imidazo[4,5-c]pyridin-5(4H)-yl)methanone], the “PBMC 10 μM (% control)” value on P2X7 [1] is recorded as −11.0 % control. Further, the IC50 on P2X7 [2] stood at 148 nM. This compound yielded a Ki on P2X7 [3] of 178 nM.
For `CCC1c2ncn(-c3cnccn3)c2CCN1C(=O)c1cccc(C(F)(F)F)c1Cl` (stereo not shown) [Example 15, (2-Chloro-3-(trifluoromethyl)phenyl)(4-ethyl-1-(pyrazin-2-yl)-6,7-dihydro-1H-imidazo[4,5-c]pyridin-5(4H)-yl)methanone], the “PBMC 1 μM (% control)” value at P2X7 [1] came to 9.1 % control. For the same compound, at P2X7 [2], the IC50 turned out to be 87.5 nM. The compound also registered a Ki at P2X7 [3] of 158 nM.
For the compound `C[C@H]1Cc2c(nnn2-c2cc(F)ccn2)CN1C(=O)c1cccc(C(F)(F)F)c1Cl` (single isomer, unassigned) [Example 199, (6S*)-5-{[2-Chloro-3-(trifluoromethyl)phenyl]carbonyl}-1-(4-fluoropyridin-2-yl)-6-methyl-4,5,6,7-tetrahydro-1H-[1,2,3]triazolo[4,5-c]pyridine], on P2X7 [1], the “PBMC 10 μM (% control)” value turned out to be 0.0 % control. Besides, the IC50 on P2X7 [2] was 8.6 nM. The Ki at P2X7 [3] worked out at 39.8 nM.
The matching figures for `O=C(c1cccc(C(F)(F)F)c1F)N1CCc2c(nc(C(F)(F)F)n2-c2ccccc2)C1` [Example 57, 5-{[2-Fluoro-3-(trifluoromethyl)phenyl]carbonyl}-1-phenyl-2-(trifluoromethyl)-4,5,6,7-tetrahydro-1H-imidazo[4,5-c]pyridine]: 46.7 % control, 718 nM and 794 nM.
In the case of `C[C@@H]1Cc2c(nnn2-c2cc(F)ccn2)CN1C(=O)c1cccc(C(F)(F)F)c1Cl` (single isomer, unassigned) [Example 198, (6R*)-5-{[2-Chloro-3-(trifluoromethyl)phenyl]carbonyl}-1-(4-fluoropyridin-2-yl)-6-methyl-4,5,6,7-tetrahydro-1H-[1,2,3]triazolo[4,5-c]pyridine], the “PBMC 10 μM (% control)” value at P2X7 [1] was found to be 1.3 % control. Besides, the IC50 on P2X7 [2] amounted to 180 nM. This compound also had a Ki at P2X7 [3] of 631 nM.
For `O=C(c1cccc(C(F)(F)F)c1Cl)N1CCc2c(-c3ccc(F)cc3)n[nH]c2C1` [Example 110, 6-{[2-Chloro-3-(trifluoromethyl)phenyl]carbonyl}-3-(4-fluorophenyl)-4,5,6,7-tetrahydro-2H-pyrazolo[3,4-c]pyridine], the “PBMC 1 μM (% control)” value at P2X7 [1] is recorded as −15.1 % control. Besides, the IC50 at P2X7 [2] worked out at 10 nM. Further, the Ki on P2X7 [3] stood at 182 nM.

Usually IC50 stands for the concentration at which inhibition is half-maximal. As a reminder, the Ki is the dissociation constant of the complex between target and ligand, obtained from inhibition or displacement. Higher therefore signals a looser hold on the target.

Values taken from patent publication US9464084B2, “P2X7 modulators” (Janssen Pharmaceutica NV, priority 2013, dated 2016).
